Laboratory results reported in paper PMC8900464 (Journal of medicinal chemistry, 2022).

test system: total AKT (T-AKT); experiment: Immunoblotting of total AKT in BT474 cells; format: cell-based; settings: BT474 cells, 10 μM, 24 h, western blot

With NC1(C(=O)N[C@@H](CCN2CCN(C(=O)CCOCCNc3cccc4c3C(=O)N(C3CCC(=O)NC3=O)C4=O)CC2)c2ccc(Cl)cc2)CCN(c2ncnc3[nH]ccc23)CC1 (stereo partly drawn) [Compound 31, 4-Amino-N-((1S)-1-(4-chlorophenyl)-3-(4-(3-(2-((2-(2,6-dioxopiperidin-3-yl)-1,3-dioxoisoindolin-4-yl)amino)ethoxy)propanoyl)-piperazin-1-yl)propyl)-1-(7H-pyrrolo[2,3-d]pyrimidin-4-yl)-piperidine-4-carboxamide] as the compound, how does the AKT degradation read?
The AKT degradation was “only moderate AKT degradation”.

same assay, conditions: BT474 cells, 1, 5 and 10 μM, 24 h, western blot

With NC1(C(=O)N[C@@H](CCN2CCN(C(=O)CCCCCNc3cccc4c3C(=O)N(C3CCC(=O)NC3=O)C4=O)CC2)c2ccc(Cl)cc2)CCN(c2ncnc3[nH]ccc23)CC1 (stereo partly drawn) [Compound 28, 4-Amino-N-((1S)-1-(4-chlorophenyl)-3-(4-(6-((2-(2,6-dioxopiperidin-3-yl)-1,3-dioxoisoindolin-4-yl)amino)hexanoyl)piperazin-1-yl)-propyl)-1-(7H-pyrrolo[2,3-d]pyrimidin-4-yl)piperidine-4-carboxamide] as the compound, how does the “AKT (T-AKT) degradation” value read?
The value was “moderate effectiveness”.

Which “AKT (T-AKT) degradation” value does the source give for NC1(C(=O)N[C@@H](CCN2CCN(C(=O)CCNc3cccc4c3C(=O)N(C3CCC(=O)NC3=O)C4=O)CC2)c2ccc(Cl)cc2)CCN(c2ncnc3[nH]ccc23)CC1 (stereo partly drawn) [Compound 25, 4-Amino-N-((1S)-1-(4-chlorophenyl)-3-(4-(3-((2-(2,6-dioxopiperidin-3-yl)-1,3-dioxoisoindolin-4-yl)amino)propanoyl)piperazin-1-yl)propyl)-1-(7H-pyrrolo[2,3-d]pyrimidin-4-yl)piperidine-4-carboxamide] here?
The value was “negligible AKT degradation”.

Which “AKT (T-AKT) degradation” value does the source give for Cc1ncsc1-c1ccc(CNC(=O)[C@@H]2C[C@@H](O)CN2C(=O)[C@@H](NC(=O)CCOCCC(=O)N2CCN(CC[C@H](NC(=O)C3(N)CCN(c4ncnc5[nH]ccc45)CC3)c3ccc(Cl)cc3)CC2)C(C)(C)C)cc1 [Compound 4, 4-Amino-N-((S)-1-(4-chlorophenyl)-3-(4-(3-(3-(((S)-1-((2S,4R)-4-hydroxy-2-((4-(4-methylthiazol-5-yl)benzyl)carbamoyl)pyrrolidin-1-yl)-3,3-dimethyl-1-oxobutan-2-yl)amino)-3-oxopropoxy)-propanoyl)piperazin-1-yl)propyl)-1-(7H-pyrrolo[2,3-d]pyrimidin-4-yl)piperidine-4-carboxamide] here?
Its value is “decreased the AKT degradation effectiveness”.

How did the “AKT (T-AKT) degradation” value turn out when Cc1ncsc1-c1ccc(CNC(=O)[C@@H]2C[C@@H](O)CN2C(=O)[C@@H](NC(=O)COCC(=O)N2CCN(CC[C@H](NC(=O)C3(N)CCN(c4ncnc5[nH]ccc45)CC3)c3ccc(Cl)cc3)CC2)C(C)(C)C)cc1 [Compound 3, 4-Amino-N-((S)-1-(4-chlorophenyl)-3-(4-(2-(2-(((S)-1-((2S,4R)-4-hydroxy-2-((4-(4-methylthiazol-5-yl)benzyl)carbamoyl)pyrrolidin-1-yl)-3,3-dimethyl-1-oxobutan-2-yl)amino)-2-oxoethoxy)acetyl)-piperazin-1-yl)propyl)-1-(7H-pyrrolo[2,3-d]pyrimidin-4-yl)-piperidine-4-carboxamide] was run?
Its value is “most significant T-AKT degradation”.

NC1(C(=O)N[C@@H](CCN2CCN(C(=O)CCCCCCCNc3cccc4c3C(=O)N(C3CCC(=O)NC3=O)C4=O)CC2)c2ccc(Cl)cc2)CCN(c2ncnc3[nH]ccc23)CC1 (stereo partly drawn) [Compound 30, 4-Amino-N-((1S)-1-(4-chlorophenyl)-3-(4-(8-((2-(2,6-dioxopiperidin-3-yl)-1,3-dioxoisoindolin-4-yl)amino)octanoyl)piperazin-1-yl)-propyl)-1-(7H-pyrrolo[2,3-d]pyrimidin-4-yl)piperidine-4-carboxamide] was tested. Which “AKT (T-AKT) degradation” value did it give?
Its value is “negligible AKT degradation”.

With Cc1ncsc1-c1ccc(CNC(=O)[C@@H]2C[C@@H](O)CN2C(=O)[C@@H](NC(=O)CCCC(=O)N2CCN(CC[C@H](NC(=O)C3(N)CCN(c4ncnc5[nH]ccc45)CC3)c3ccc(Cl)cc3)CC2)C(C)(C)C)cc1 [Compound 13, 4-Amino-N-((S)-1-(4-chlorophenyl)-3-(4-(5-(((S)-1-((2S,4R)-4-hydroxy-2-((4-(4-methylthiazol-5-yl)benzyl)carbamoyl)pyrrolidin-1-yl)-3,3-dimethyl-1-oxobutan-2-yl)amino)-5-oxopentanoyl)-piperazin-1-yl)propyl)-1-(7H-pyrrolo[2,3-d]pyrimidin-4-yl)-piperidine-4-carboxamide] as the compound, how does the “AKT (T-AKT) degradation” value read?
Its value is “inactive at reducing the T-AKT protein level”.

Cc1ncsc1-c1ccc(CNC(=O)[C@@H]2C[C@@H](O)CN2C(=O)[C@@H](NC(=O)CCC(=O)N2CCN(CC[C@H](NC(=O)C3(N)CCN(c4ncnc5[nH]ccc45)CC3)c3ccc(Cl)cc3)CC2)C(C)(C)C)cc1 [Compound 12, 4-Amino-N-((S)-1-(4-chlorophenyl)-3-(4-(4-(((S)-1-((2S,4R)-4-hydroxy-2-((4-(4-methylthiazol-5-yl)benzyl)carbamoyl)pyrrolidin-1-yl)-3,3-dimethyl-1-oxobutan-2-yl)amino)-4-oxobutanoyl)-piperazin-1-yl)propyl)-1-(7H-pyrrolo[2,3-d]pyrimidin-4-yl)-piperidine-4-carboxamide] was tested. Which “AKT (T-AKT) degradation” value did it give?
The value was “inactive at reducing the T-AKT protein level”.

For NC1(C(=O)N[C@@H](CCN2CCN(C(=O)CCCCCCNc3cccc4c3C(=O)N(C3CCC(=O)NC3=O)C4=O)CC2)c2ccc(Cl)cc2)CCN(c2ncnc3[nH]ccc23)CC1 (stereo partly drawn) [Compound 29, 4-Amino-N-((1S)-1-(4-chlorophenyl)-3-(4-(7-((2-(2,6-dioxopiperidin-3-yl)-1,3-dioxoisoindolin-4-yl)amino)heptanoyl)piperazin-1-yl)propyl)-1-(7H-pyrrolo[2,3-d]pyrimidin-4-yl)piperidine-4-carboxamide], which “AKT (T-AKT) degradation” value is on record?
Its value is “negligible AKT degradation”.

With NC1(C(=O)N[C@@H](CCN2CCN(C(=O)CCOCCOCCOCCOCCOCCNc3cccc4c3CN(C3CCC(=O)NC3=O)C4=O)CC2)c2ccc(Cl)cc2)CCN(c2ncnc3[nH]ccc23)CC1 (stereo partly drawn) [Compound 39, 4-Amino-N-((1S)-1-(4-chlorophenyl)-3-(4-(1-((2-(2,6-dioxopiperidin-3-yl)-1-oxoisoindolin-4-yl)amino)-3,6,9,12,15-pentaoxaoctadecan-18-oyl)piperazin-1-yl)propyl)-1-(7H-pyrrolo[2,3-d]pyrimidin-4-yl)piperidine-4-carboxamide] as the compound, how does the “AKT (T-AKT) degradation” value read?
Its value is “significantly decreased effectiveness in AKT degradation”.

How did the “AKT (T-AKT) degradation” value turn out when NC1(C(=O)N[C@@H](CCN2CCN(C(=O)CNc3cccc4c3C(=O)N(C3CCC(=O)NC3=O)C4=O)CC2)c2ccc(Cl)cc2)CCN(c2ncnc3[nH]ccc23)CC1 (stereo partly drawn) [Compound 24, 4-Amino-N-((1S)-1-(4-chlorophenyl)-3-(4-((2-(2,6-dioxopiperidin-3-yl)-1,3-dioxoisoindolin-4-yl)glycyl)piperazin-1-yl)propyl)-1-(7H-pyrrolo[2,3-d]pyrimidin-4-yl)piperidine-4-carboxamide] was run?
The value was “negligible AKT degradation”.

test system: P-AKT (S473), P-PRAS40 (T246), P-S6 (S240/244); experiment: Immunoblotting of P-AKT and downstream signaling in BT474 cells; format: cell-based; settings: BT474 cells, 1, 5 and 10 μM, 24 h, P-PRAS40 and P-S6, western blot

NC1(C(=O)N[C@@H](CCN2CCN(C(=O)CCCCCNc3cccc4c3C(=O)N(C3CCC(=O)NC3=O)C4=O)CC2)c2ccc(Cl)cc2)CCN(c2ncnc3[nH]ccc23)CC1 (stereo partly drawn) [Compound 28, 4-Amino-N-((1S)-1-(4-chlorophenyl)-3-(4-(6-((2-(2,6-dioxopiperidin-3-yl)-1,3-dioxoisoindolin-4-yl)amino)hexanoyl)piperazin-1-yl)-propyl)-1-(7H-pyrrolo[2,3-d]pyrimidin-4-yl)piperidine-4-carboxamide] was tested. Which downstream signaling inhibition did it give?
The downstream signaling inhibition was “moderate effectiveness”.

For Cc1ncsc1-c1ccc(CNC(=O)[C@@H]2C[C@@H](O)CN2C(=O)[C@@H](NC(=O)COCC(=O)N2CCN(CC[C@H](NC(=O)C3(N)CCN(c4ncnc5[nH]ccc45)CC3)c3ccc(Cl)cc3)CC2)C(C)(C)C)cc1 [Compound 3, 4-Amino-N-((S)-1-(4-chlorophenyl)-3-(4-(2-(2-(((S)-1-((2S,4R)-4-hydroxy-2-((4-(4-methylthiazol-5-yl)benzyl)carbamoyl)pyrrolidin-1-yl)-3,3-dimethyl-1-oxobutan-2-yl)amino)-2-oxoethoxy)acetyl)-piperazin-1-yl)propyl)-1-(7H-pyrrolo[2,3-d]pyrimidin-4-yl)-piperidine-4-carboxamide], which downstream signaling inhibition is on record?
The downstream signaling inhibition was “most effective inhibition of the downstream signaling”.
